# Measurements taken from patent US12029776B2, “Composition for treating cancer and use and medicament thereof” (NEWISH TECHNOLOGY (BEIJING) CO., LTD., priority 2020, dated 2024).
# Structures can show the parent of a compound that is named as a salt.
# System: liver cancer cell line
# Assay: VEGFR2 inhibitors in combination with the SGLT1 inhibitor on the liver cancer cell line (Example 2)
# Type: cell-based
# Details: combined with SGLT1 inhibitor sotagliflozin, FIG. 11-1 to 11-30
# Description: Dimethyl sulfoxide (DMSO) can dissolve formazan in cells, and its light absorption value measured at 570 nm wavelength with an enzyme-linked immunodetector can indirectly reflect the number of living cells. Cell growth was determined by 3-(4,5-dimethylthiazol-2-yl)-2,5-diphenyltetrazolium bromide (MTT) assay in a 96-well plate. Specifically, the cells were digested and counted, and then resuspended into a system containing 5000 cells per 200 μL of culture medium and seeded in each well of a 96-well plate. The next day, the medium was replaced with a medium containing different concentrations of sotagliflozin, apatinib, lenvatinib, and the composition of them. After 48 or 72 hours of incubation with the drugs, 20 μL of MTT reagent was added to each well and incubated for 2 hours. After discarding the medium, the formazan deposit in the cells was dissolved in 100 μL of DMSO. The absorbance was measured at 570 nm by a microplate reader. Samples were used in quadruplicate in each group.
row,Compound,tumor suppressive effect in combination with the SGLT1 inhibitor compared with single agent
1,Cc1cc(Nc2cc(N3CCN(C)CC3)nc(/C=C/c3ccccc3)n2)n[nH]1.O=C(O)C(O)C(O)C(=O)O [ENMD-2076 L-(+)-tartaric acid],better tumor suppressive effect than as a single agent
2,Cc1cc(Nc2cc(N3CCN(C)CC3)nc(/C=C/c3ccccc3)n2)n[nH]1 [ENMD-2076],better tumor suppressive effect than as a single agent
3,COc1cc2c(Oc3ccc4[nH]c(C)cc4c3F)ccnc2cc1OCC1(N)CC1 [anlotinib (AL3818) dihydrochloride],better tumor suppressive effect than as a single agent
4,Cc1cc2c(F)c(Oc3ncnn4cc(OC[C@@H](C)OC(=O)[C@H](C)N)c(C)c34)ccc2[nH]1 [brivanib alaninate],better tumor suppressive effect than as a single agent
5,Cc1cc2c(F)c(Oc3ncnn4cc(OC[C@@H](C)O)c(C)c34)ccc2[nH]1 [brivanib],better tumor suppressive effect than as a single agent
6,COc1cc2nccc(Oc3ccc(NC(=O)C4(C(=O)Nc5ccc(F)cc5)CC4)cc3)c2cc1OC [cabozantinib malate],better tumor suppressive effect than as a single agent
7,COc1cc2c(Oc3ccc4[nH]c(C)cc4c3F)ncnc2cc1OCCCN1CCCC1 [cediranib],better tumor suppressive effect than as a single agent
8,CNC(=O)c1c(C)oc2cc(Oc3ncnc4cc(OC)c(OC)cc34)ccc12 [fruquintinib],better tumor suppressive effect than as a single agent
9,COc1cc2nccc(Oc3ccc(NC(=O)NC4CC4)c(Cl)c3)c2cc1C(N)=O [lenvatinib mesylate],better tumor suppressive effect than as a single agent
10,CCS(=O)(=O)O.COC(=O)c1ccc2c(c1)NC(=O)/C2=C(\Nc1ccc(N(C)C(=O)CN2CCN(C)CC2)cc1)c1ccccc1 [nintedanib ethanesulfonate salt],better tumor suppressive effect than as a single agent
11,COC(=O)c1ccc2c(c1)NC(=O)/C2=C(\Nc1ccc(N(C)C(=O)CN2CCN(C)CC2)cc1)c1ccccc1 [nintedanib],better tumor suppressive effect than as a single agent
12,CNC(=O)c1cc(Oc2ccc(NC(=O)Nc3ccc(Cl)c(C(F)(F)F)c3)c(F)c2)ccn1 [regorafenib],better tumor suppressive effect than as a single agent
13,COCCNCc1ccc(-c2cc3nccc(Oc4ccc(NC(=O)C5(C(=O)Nc6ccc(F)cc6)CC5)cc4F)c3s2)nc1 [sitravatinib],better tumor suppressive effect than as a single agent
14,O=C1c2c(O)cc(O)cc2O[C@H](c2ccc(O)c(O)c2)[C@H]1O [taxifolin],better tumor suppressive effect than as a single agent
15,CNC(=O)c1cc(COc2nnc(Nc3ccc(Cl)cc3)c3ccoc23)ccn1 [telatinib],better tumor suppressive effect than as a single agent
16,cediranib maleate,better tumor suppressive effect than as a single agent
17,vitamin E,better tumor suppressive effect than as a single agent

# System: transplanted tumor of the liver cancer cell line Hep3B
# Assay: Efficacy on the transplanted tumor in nude mice
# Details: FIG. 10
# Description: Hep3B cells were cultured with 10% serum DMEM medium and were digested and counted after they grew into the logarithmic phase. […] Therefore, the present invention adopted a dose of 5*10e6 cells per nude mouse, and administration was performed in groups after the tumors grew into an average volume of 100 mm^3 in about 21 days. The administration was divided into a solvent control group, an apatinib 50 mg/kg oral administration group, a sotagliflozin 20 mg/kg intraperitoneal injection group, and a combination group of simultaneous apatinib 50 mg/kg oral administration and sotagliflozin 20 mg/kg intraperitoneal injection. The administration cycle was once every other day, and the tumor volumes were measured every Tuesday and Friday and calculated according to the formula V=a*b^2/2 (a is the measured long diameter of the tumor, b is the measured short diameter of the tumor). A graph was mapped using Graphpad prism 5 and the measurement results were analyzed statistically.
row,Compound,sensitisation of the transplanted tumor to the growth inhibitory effect of apatinib
1,CCOc1ccc(Cc2cc([C@@H]3O[C@H](SC)[C@@H](O)[C@H](O)[C@H]3O)ccc2Cl)cc1 [sotagliflozin],sensitive to the growth inhibitory effect of apatinib
